One assay deals with human PDE2A1 (Homo sapiens (Human), UniProt O00408). The experiment in a line: IMAP FP PDE selectivity panel, human PDE2A1. In kind it is biochemical. The gist of the method:
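GST-tagged human PDE2A1 expressed in insect cells, run at room temperature for 60 min with 50 nM FAM-cAMP containing 1000 nM cGMP, pH 7.2 Tris/MgCl2 buffer. IMAP fluorescence polarization read after binding step.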

For another assay, the target named is Rhesus PDE2A3 (Macaca mulatta, UniProt B3VTJ2). Put plainly: PDE2 fluorescence polarization (IMAP FP) inhibition assay, rhesus enzyme. In kind it is biochemical, rhesus macaque. Put shortly: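 Rhesus PDE2A3 came from lysate of transiently transfected AD293 cells, diluted to give 20% substrate conversion. Substrate was 50 nM FAM-cAMP with 1 uM cGMP activator in Tris pH 7.2/MgCl2 buffer, run 60 min at room temperature over 10-point 3-fold dilutions in 1% DMSO. Read-out was IMAP fluorescence polarization (mP) after ≥1 h binding.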
A general note: In fluorescence polarisation assays a small probe gives low polarisation when free and higher when bound to something large.

Setting [1] is: Human PDE2, Lab B, read-out: Human PDE2 Ki (nM) - Lab B.
[2] abbreviates: Rhesus PDE2, Lab A, read-out: Rhesus PDE2 Ki (nM) - Lab A.
Where [3] appears, read: Rhesus PDE2, Lab B, read-out: Rhesus PDE2 Ki (nM) - Lab B.
Setting [4] is: Human PDE2, Lab A, read-out: Human PDE2 Ki (nM) - Lab A.

By Ki is commonly meant the equilibrium dissociation constant of an inhibitor or competing ligand from its target.

Where two headings read alike, the source gives them in different places.

Chain of Rhesus PDE2A3 (B3VTJ2 1-941): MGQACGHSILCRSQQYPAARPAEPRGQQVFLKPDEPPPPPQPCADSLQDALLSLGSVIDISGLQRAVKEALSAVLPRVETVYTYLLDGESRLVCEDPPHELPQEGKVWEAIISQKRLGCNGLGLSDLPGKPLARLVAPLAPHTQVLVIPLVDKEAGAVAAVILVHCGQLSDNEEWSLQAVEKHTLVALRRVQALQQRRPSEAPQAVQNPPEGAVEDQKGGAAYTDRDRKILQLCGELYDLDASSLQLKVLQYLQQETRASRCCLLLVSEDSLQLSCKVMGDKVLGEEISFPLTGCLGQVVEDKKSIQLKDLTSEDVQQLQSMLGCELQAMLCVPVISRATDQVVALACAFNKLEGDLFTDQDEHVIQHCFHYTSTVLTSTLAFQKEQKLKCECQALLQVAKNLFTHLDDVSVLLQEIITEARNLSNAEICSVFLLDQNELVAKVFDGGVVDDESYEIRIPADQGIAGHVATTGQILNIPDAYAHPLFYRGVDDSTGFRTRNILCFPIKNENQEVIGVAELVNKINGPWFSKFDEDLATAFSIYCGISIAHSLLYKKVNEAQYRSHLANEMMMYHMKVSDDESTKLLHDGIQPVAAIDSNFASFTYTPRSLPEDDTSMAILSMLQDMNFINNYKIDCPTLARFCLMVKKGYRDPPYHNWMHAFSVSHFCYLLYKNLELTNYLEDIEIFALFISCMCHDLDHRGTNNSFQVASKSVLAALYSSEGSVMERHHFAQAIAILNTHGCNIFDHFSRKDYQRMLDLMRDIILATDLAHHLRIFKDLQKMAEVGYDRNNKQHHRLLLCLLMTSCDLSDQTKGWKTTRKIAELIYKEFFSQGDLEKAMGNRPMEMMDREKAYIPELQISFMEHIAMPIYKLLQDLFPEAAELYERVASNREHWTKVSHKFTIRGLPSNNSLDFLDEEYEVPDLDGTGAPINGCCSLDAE
Chain of human PDE2A1 (O00408 other isoform, or with tags, fused parts or gaps): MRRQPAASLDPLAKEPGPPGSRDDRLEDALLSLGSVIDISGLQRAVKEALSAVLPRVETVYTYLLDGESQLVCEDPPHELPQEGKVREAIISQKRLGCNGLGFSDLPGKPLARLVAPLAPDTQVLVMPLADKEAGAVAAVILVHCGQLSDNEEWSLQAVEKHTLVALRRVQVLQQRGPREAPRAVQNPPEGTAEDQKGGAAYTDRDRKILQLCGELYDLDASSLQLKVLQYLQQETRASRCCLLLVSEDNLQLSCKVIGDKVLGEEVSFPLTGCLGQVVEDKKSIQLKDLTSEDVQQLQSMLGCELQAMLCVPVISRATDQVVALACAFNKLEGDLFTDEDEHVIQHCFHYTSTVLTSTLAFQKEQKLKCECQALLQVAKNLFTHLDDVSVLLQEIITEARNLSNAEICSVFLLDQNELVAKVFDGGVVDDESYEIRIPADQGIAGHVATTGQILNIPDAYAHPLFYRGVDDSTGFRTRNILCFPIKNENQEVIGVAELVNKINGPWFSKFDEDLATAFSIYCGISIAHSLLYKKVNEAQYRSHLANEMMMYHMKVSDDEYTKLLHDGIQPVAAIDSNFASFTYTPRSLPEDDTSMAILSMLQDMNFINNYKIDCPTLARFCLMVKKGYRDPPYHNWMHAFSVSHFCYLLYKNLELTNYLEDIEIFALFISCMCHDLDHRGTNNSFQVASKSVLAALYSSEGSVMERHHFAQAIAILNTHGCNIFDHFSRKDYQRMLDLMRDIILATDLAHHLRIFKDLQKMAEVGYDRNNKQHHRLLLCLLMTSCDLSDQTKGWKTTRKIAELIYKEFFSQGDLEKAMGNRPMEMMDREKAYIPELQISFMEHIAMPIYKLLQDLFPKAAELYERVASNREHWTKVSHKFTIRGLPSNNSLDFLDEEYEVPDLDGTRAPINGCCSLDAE

Turning to `Cc1nc(C(=O)NC2(c3ccc(SC(F)(F)F)c(F)c3)CC2)cc(=O)[nH]1` [Example 261, N-(1-{3-fluoro-4-[(trifluoromethyl)sulfanyl]phenyl}cyclopropyl)-2-methyl-6-oxo-1,6-dihydropyrimidine-4-carboxamide], the Ki on human PDE2A1 (setting [1]) was 33 nM; at Rhesus PDE2A3 (setting [2]) it was 18 nM; at Rhesus PDE2A3 (setting [3]) it was 37 nM.

In the case of `CC[C@@H](NC(=O)c1cc(=O)[nH]c(C)n1)c1ccc(SC(F)(F)F)c(F)c1` [Example 54, N-[(1R)-1-{3-fluoro-4-[(trifluoromethyl)sulfanyl]phenyl}propyl]-2-methyl-6-oxo-1,6-dihydropyrimidine-4-carboxamide], the results for the Ki on human PDE2A1 (setting [4]) and at Rhesus PDE2A3 (setting [2]) were 5.5 nM and 9.7 nM, respectively.

As to `Cc1nc(C(=O)N[C@H](C)c2ccc(C(F)(F)F)c(Cl)c2)cc(=O)[nH]1` [Example 47, N-{(1R)-1-[3-chloro-4-(trifluoromethyl)phenyl]ethyl}-2-methyl-6-oxo-1,6-dihydropyrimidine-4-carboxamide], the Ki was determined as 32 nM at human PDE2A1 (setting [4]) and 41 nM at Rhesus PDE2A3 (setting [2]).

As to `Cc1nc(C(=O)N[C@@H](c2ccc(C(F)(F)F)cc2)C(C)(C)C)cc(=O)[nH]1` [Example 249, N-{(1R)-2,2-dimethyl-1-[4-(trifluoromethyl)phenyl]propyl}-2-methyl-6-oxo-1,6-dihydropyrimidine-4-carboxamide], the results for the Ki on human PDE2A1 (setting [1]), on Rhesus PDE2A3 (setting [2]) and on Rhesus PDE2A3 (setting [3]) were 4.1 nM, 2 nM and 4.3 nM, respectively.

Take `COc1ccc(Cc2nc(C(=O)N[C@@H](c3ccc(C(F)(F)F)c(F)c3)C(C)C)cc(=O)[nH]2)cc1F` [Example 514, 2-(3-fluoro-4-methoxybenzyl)-N-{(1R)-1-[3-fluoro-4-(trifluoromethyl)phenyl]-2-methylpropyl}-6-oxo-1,6-dihydropyrimidine-4-carboxamide]: the inhibition constant (Ki) at human PDE2A1 (setting [1]) was 1.8 nM; on Rhesus PDE2A3 (setting [3]), 2.2 nM.

`Cc1nc(C(=O)NC2(c3ccc(OC(F)(F)F)c(F)c3)CC2)cc(=O)[nH]1` [Example 67, N-{1-[3-fluoro-4-(trifluoromethoxy)phenyl]cyclopropyl}-2-methyl-6-oxo-1,6-dihydropyrimidine-4-carboxamide]: the inhibitory constant (Ki) was around 9.6 nM at human PDE2A1 (setting [4]), 12 nM at human PDE2A1 (setting [1]), 16 nM on Rhesus PDE2A3 (setting [2]) and 19 nM at Rhesus PDE2A3 (setting [3]).

As to `Cc1nc(C(=O)NC(C)(C)c2ccc(C(F)(F)F)c(F)c2)cc(=O)[nH]1` [Example 43, N-{1-[3-fluoro-4-(trifluoromethyl)phenyl]-1-methylethyl}-2-methyl-6-oxo-1,6-dihydropyrimidine-4-carboxamide], the Ki turned out to be 18 nM on human PDE2A1 (setting [4]), 15 nM on human PDE2A1 (setting [1]), 20 nM at Rhesus PDE2A3 (setting [2]) and 14 nM on Rhesus PDE2A3 (setting [3]).

Consider `CC[C@@H](NC(=O)c1cc(=O)[nH]c(C(C)(C)c2ccc(OC)cc2)n1)c1ccc(OC(F)(F)F)c(F)c1` [Example 504, N-{(1R)-1-[3-fluoro-4-(trifluoromethoxy)phenyl]propyl}-2-[1-(4-methoxyphenyl)-1-methylethyl]-6-oxo-1,6-dihydropyrimidine-4-carboxamide], for which the Ki was 30 nM on human PDE2A1 (setting [1]) and 42 nM at Rhesus PDE2A3 (setting [3]).

`CC(C)(C)[C@@H](NC(=O)c1cc(=O)[nH]c(C2CC2)n1)c1ccc(OC(F)(F)F)c(F)c1` [Example 437, 2-cyclopropyl-N-{(1R)-1-[3-fluoro-4-(trifluoromethoxy)phenyl]-2,2-dimethylpropyl}-6-oxo-1,6-dihydropyrimidine-4-carboxamide]: the inhibitory constant (Ki) on human PDE2A1 (setting [1]) and at Rhesus PDE2A3 (setting [3]) was 1.2 nM in each case.

For `COc1ccc(Cc2nc(C(=O)N[C@@H](c3ccc(S(F)(F)(F)(F)F)cc3)C(C)C)cc(=O)[nH]2)cc1` [Example 471, 2-(4-methoxybenzyl)-N-[(1R)-2-methyl-1-[4-(pentafluoro-λ^6-sulfanyl)phenyl]propyl}-6-oxo-1,6-dihydropyrimidine-4-carboxamide], the Ki on human PDE2A1 (setting [1]) and at Rhesus PDE2A3 (setting [3]) was 1.5 nM throughout.

For the compound `C[C@@H](NC(=O)c1cc(=O)[nH]c(C2CC2)n1)c1cc(F)c(C(F)(F)F)cc1F` [Example 440, 2-cyclopropyl-N-{(1R)-1-[2,5-difluoro-4-(trifluoromethyl)phenyl]ethyl}-6-oxo-1,6-dihydropyrimidine-4-carboxamide], the Ki was 60 nM at human PDE2A1 (setting [1]) and 51 nM at Rhesus PDE2A3 (setting [3]).

Take `CC(C)(NC(=O)c1cc(=O)[nH]c(-c2ccccc2)n1)c1ccc(OC(F)(F)F)cc1` [Example 281, N-{1-methyl-1-[4-(trifluoromethoxy)phenyl]ethyl}-6-oxo-2-phenyl-1,6-dihydropyrimidine-4-carboxamide]: the Ki at human PDE2A1 (setting [4]) amounted to 82 nM; at Rhesus PDE2A3 (setting [2]), 133 nM.

Turning to `CCc1nc(C(=O)N[C@H](C)c2ccc(C(F)(F)F)cc2)c(CC)c(=O)[nH]1` [Example 333, (R)-2,5-diethyl-6-oxo-N-(1-(4-(trifluoromethyl)phenyl)ethyl)-1,6-dihydropyrimidine-4-carboxamide], the values for the Ki on human PDE2A1 (setting [4]) and at Rhesus PDE2A3 (setting [2]) were 80 nM and 89 nM, respectively.

Take `CCC(NC(=O)c1cc(=O)[nH]c(-c2ccccc2)n1)c1ccc(C(C)(C)C)cc1` (centres unmarked) [Example 163, N-[1-(4-tert-butylphenyl)propyl]-6-oxo-2-phenyl-1,6-dihydropyrimidine-4-carboxamide]: the Ki at human PDE2A1 (setting [4]) was found to be 36 nM; on Rhesus PDE2A3 (setting [2]) it was 61 nM.

As to `Cc1nc(C(=O)N[C@H](C)c2ccc(C3CC3)cc2)cc(=O)[nH]1` [Example 258, N-[(1R)-1-(4-cyclopropylphenyl)ethyl]-2-methyl-6-oxo-1,6-dihydropyrimidine-4-carboxamide], the values for the Ki at human PDE2A1 (setting [1]), at Rhesus PDE2A3 (setting [2]) and on Rhesus PDE2A3 (setting [3]) were 39 nM, 19 nM and 41 nM, respectively.

Turning to `CC(C)(NC(=O)c1cc(=O)[nH]c(C2CC2)n1)c1ccc(S(F)(F)(F)(F)F)cc1` [Example 680, 2-cyclopropyl-N-{1-methyl-1-[4-(pentafluoro-λ^6-sulfanyl)phenyl]ethyl}-6-oxo-1,6-dihydropyrimidine-4-carboxamide], the Ki came out at 87 nM at human PDE2A1 (setting [1]) and 80 nM on Rhesus PDE2A3 (setting [3]).

`CC(C)(C)[C@@H](NC(=O)c1cc(=O)[nH]c(C2CC2)n1)c1ccc(OC(F)F)cc1` [Example 436, 2-cyclopropyl-N-{(1R)-1-[4-(difluoromethoxy)phenyl]-2,2-dimethylpropyl}-6-oxo-1,6-dihydropyrimidine-4-carboxamide]: the Ki turned out to be 3.2 nM at human PDE2A1 (setting [1]) and 3.5 nM at Rhesus PDE2A3 (setting [3]).

For the compound `COc1ccc(C(C)(C)c2nc(C(=O)N[C@@H](c3ccc(SC(F)(F)F)c(F)c3)C(C)C)cc(=O)[nH]2)cc1` [Example 491, N-[(1R)-1-{3-fluoro-4-[(trifluoromethyl)sulfanoyl]phenyl}-2-methylpropyl]-2-[1-(4-methoxyphenyl)-1-methylethyl]-6-oxo-1,6-dihydropyrimidine-4-carboxamide], the Ki on human PDE2A1 (setting [1]) and at Rhesus PDE2A3 (setting [3]) was 27 nM in each case.

Regarding `CC[C@@H](NC(=O)c1cc(=O)[nH]c(Cc2ccc(OC)c(F)c2)n1)c1ccc(OC(F)(F)F)c(F)c1` [Example 528, 2-(3-fluoro-4-methoxybenzyl)-N-{(1R)-1-[3-fluoro-4-(trifluoromethoxy)phenyl]propyl}-6-oxo-1,6-dihydropyrimidine-4-carboxamide], the Ki at human PDE2A1 (setting [1]) is 1.1 nM; on Rhesus PDE2A3 (setting [3]), 1.2 nM.

For the compound `CCc1ccc(C(C)NC(=O)c2cc(=O)[nH]c(C)n2)cc1` (centres unmarked) [Example 268, N-[1-(4-ethylphenyl)ethyl]-2-methyl-6-oxo-1,6-dihydropyrimidine-4-carboxamide], the inhibition constant (Ki) on human PDE2A1 (setting [4]) stood at 83 nM; on Rhesus PDE2A3 (setting [2]) it was 146 nM.

These data come from US9815796B2 (Merck Sharp & Dohme Corp., priority 2013, dated 2017).
